In patent US20260215428A1, “WEED CONTROL METHOD” (SYNGENTA CROP PROTECTION AG, priority 2023, published 2026):

How the values were obtained:
[1] = tested on: Eleusine indica; experiment: Further glasshouse test versus other ACCase-inhibiting herbicides, Table B2-2; type: in vivo; settings: 21 days after application
Source text: (§1) Further tests were employed to test the efficacy of a compound of Formula I versus other ACCase-inhibiting herbicides. The five main targets were Lolium multiflorum, Eleusine indica, Digitaria insularis, Sorghum halepense and Echinochloa crus-galli. Collectively, the populations contained all the major target-site resistance mutations affecting ACCase herbicides. Two L. multiflorum (LM-NTSR-1 and LM-NTSR-2) and one E. crus-galli (ECG-NTSR-1) populations were characterised exclusively by non-target-site resistance (“NTSR”). The target-site resistant L. multiflorum and E. indication populations were 100% homozygous for different ACCase mutations whilst the D. insularis, S. halepense and E. crus-galli samples contained a mixture of homozygous wild and mutant individuals at different genotypic frequencies. Additional underlying NTSR cannot be ruled out in the populations characterised by target-site resistance.
(§2) Around 50 seeds of each of the 24 weed populations were sown in 12-cm pots containing a mixture of peat and compost in a 1:1 ratio. The pots were watered, fertilised and kept in controlled glasshouse conditions set at 24° C./16 hr day, 18° C. night, 65% relative humidity, and a photon flux density of approximately 250 μmol quanta m^−2 s^−1 for Lolium multiflorum. The E. indica, D. insularis, S. halepense and E. crus-galli plants were kept in a separate glasshouse bay characterised by a 17 H photoperiod of 180 μmol m^−2 s^−1 with temperatures of 25° C. day and 19° C. night and 65% relative humidity. When the plants were at the two to four-leaf stage, they were treated with the various ACCase-inhibiting herbicides at 0, 15, 30, 60, 120 and 240 g ai ha^−1 in a spray cabinet mounted with a single mobile Teejet flat fan nozzle (11002VS) calibrated to deliver 200 L ha^−1 at 200 kPa. The L. multiflorum populations were treated by a compound of Formula Ic, clodinafop-propargyl, pinoxaden, cycloxydim and clethodim and the warm season grass weeds E. indica, D. insularis, S. halepense and E. crus-galli were sprayed with a Compound Ic and the commonly employed haloxyfop-methyl and clethodim. Three replicate pots were used per population. Plants were assessed for visual damage compared to the untreated control 21 days after application (0=0% damage; 100=100% damage).

[2] = tested on: Digitaria insularis; experiment: Further glasshouse test versus other ACCase-inhibiting herbicides, Table B2-3; type: in vivo; settings: 21 days after application
Source text: as §1, §2

Structure (SMILES): CC#Cc1ccc(C2=C(OC(=O)OC)C3CCC(C3)C2=O)c(OC)c1 (stereo not shown) [Compound Ic]
- visual damage ([1]; biotype D2078G, 15 g/ha): 88%
- visual damage ([1]; biotype D2078G, 30 g/ha): 100%
- visual damage ([1]; biotype D2078G, 60 g/ha): 100%
- visual damage ([1]; biotype D2078G, 120 g/ha): 100%
- visual damage ([1]; biotype D2078G, 240 g/ha): 100%
- visual damage ([1]; biotype G2096A, 15 g/ha): 93%
- visual damage ([1]; biotype G2096A, 30 g/ha): 98%
- visual damage ([1]; biotype G2096A, 60 g/ha): 100%
- visual damage ([1]; biotype G2096A, 120 g/ha): 100%
- visual damage ([1]; biotype G2096A, 240 g/ha): 100%
- visual damage ([1]; biotype I2041N, 15 g/ha): 50%
- visual damage ([1]; biotype I2041N, 30 g/ha): 98%
- visual damage ([1]; biotype I2041N, 60 g/ha): 100%
- visual damage ([1]; biotype I2041N, 120 g/ha): 100%
- visual damage ([1]; biotype I2041N, 240 g/ha): 100%
- visual damage ([1]; biotype Sensitive, 15 g/ha): 100%
- visual damage ([1]; biotype Sensitive, 30 g/ha): 100%
- visual damage ([1]; biotype Sensitive, 60 g/ha): 100%
- visual damage ([1]; biotype Sensitive, 120 g/ha): 100%
- visual damage ([1]; biotype Sensitive, 240 g/ha): 100%
- visual damage ([1]; biotype W2027C, 15 g/ha): 100%
- visual damage ([1]; biotype W2027C, 30 g/ha): 100%
- visual damage ([1]; biotype W2027C, 60 g/ha): 100%
- visual damage ([1]; biotype W2027C, 120 g/ha): 100%
- visual damage ([1]; biotype W2027C, 240 g/ha): 100%
- visual damage ([2]; biotype Sensitive, 15 g/ha): 100%
- visual damage ([2]; biotype Sensitive, 30 g/ha): 100%
- visual damage ([2]; biotype Sensitive, 60 g/ha): 100%
- visual damage ([2]; biotype Sensitive, 120 g/ha): 100%
- visual damage ([2]; biotype Sensitive, 240 g/ha): 100%
- visual damage ([2]; biotype W2027C, 15 g/ha): 100%
- visual damage ([2]; biotype W2027C, 30 g/ha): 100%
- visual damage ([2]; biotype W2027C, 60 g/ha): 100%
- visual damage ([2]; biotype W2027C, 120 g/ha): 100%
- visual damage ([2]; biotype W2027C, 240 g/ha): 100%

Structure (SMILES): CCSC(C)CC1CC(=O)C(/C(CC)=N/OC/C=C/Cl)=C(O)C1 (stereo not shown) [Clethodim, clethodim]
- visual damage ([1]; biotype D2078G, 15 g/ha): 10%
- visual damage ([1]; biotype D2078G, 30 g/ha): 27%
- visual damage ([1]; biotype D2078G, 60 g/ha): 53%
- visual damage ([1]; biotype D2078G, 120 g/ha): 100%
- visual damage ([1]; biotype D2078G, 240 g/ha): 100%
- visual damage ([1]; biotype G2096A, 15 g/ha): 7%
- visual damage ([1]; biotype G2096A, 30 g/ha): 30%
- visual damage ([1]; biotype G2096A, 60 g/ha): 78%
- visual damage ([1]; biotype G2096A, 120 g/ha): 100%
- visual damage ([1]; biotype G2096A, 240 g/ha): 100%
- visual damage ([1]; biotype I2041N, 15 g/ha): 60%
- visual damage ([1]; biotype I2041N, 30 g/ha): 27%
- visual damage ([1]; biotype I2041N, 60 g/ha): 53%
- visual damage ([1]; biotype I2041N, 120 g/ha): 100%
- visual damage ([1]; biotype I2041N, 240 g/ha): 100%
- visual damage ([1]; biotype Sensitive, 15 g/ha): 92%
- visual damage ([1]; biotype Sensitive, 30 g/ha): 100%
- visual damage ([1]; biotype Sensitive, 60 g/ha): 100%
- visual damage ([1]; biotype Sensitive, 120 g/ha): 100%
- visual damage ([1]; biotype Sensitive, 240 g/ha): 100%
- visual damage ([1]; biotype W2027C, 15 g/ha): 93%
- visual damage ([1]; biotype W2027C, 30 g/ha): 100%
- visual damage ([1]; biotype W2027C, 60 g/ha): 100%
- visual damage ([1]; biotype W2027C, 120 g/ha): 100%
- visual damage ([1]; biotype W2027C, 240 g/ha): 100%
- visual damage ([2]; biotype Sensitive, 15 g/ha): 100%
- visual damage ([2]; biotype Sensitive, 30 g/ha): 100%
- visual damage ([2]; biotype Sensitive, 60 g/ha): 100%
- visual damage ([2]; biotype Sensitive, 120 g/ha): 100%
- visual damage ([2]; biotype Sensitive, 240 g/ha): 100%
- visual damage ([2]; biotype W2027C, 15 g/ha): 78%
- visual damage ([2]; biotype W2027C, 30 g/ha): 100%
- visual damage ([2]; biotype W2027C, 60 g/ha): 100%
- visual damage ([2]; biotype W2027C, 120 g/ha): 100%
- visual damage ([2]; biotype W2027C, 240 g/ha): 100%
